Where a name gives a salt, the structure may show the parent alone.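 How tested: cells in 96-well plates exposed to compound for 48 hours at five concentrations. GI50 is the concentration that inhibits growth by half.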 Activity calls are given as the source filed them. Cut-off read from the data, not from the text of the source: active = GI50 up to about 1.1 µM and inactive = higher.
How the values were obtained:
Assay in all cases: NCI-60 cell line screen, 48 h
[1] = system: 786-0
[2] = system: CCRF-CEM
[3] = system: HCC 2998
[4] = system: HT-29
[5] = system: IGROV-1
[6] = system: Malme-3M
[7] = system: OVCAR-3
[8] = system: OVCAR-5
[9] = system: SF-295
[10] = system: SF-539
[11] = system: SK-MEL-2
[12] = system: SK-MEL-5
[13] = system: U-251
[14] = system: UACC-257

Compound	GI50 [1]	GI50 [2]	GI50 [3]	GI50 [4]	GI50 [5]	GI50 [6]	GI50 [7]	GI50 [8]	GI50 [9]	GI50 [10]	GI50 [11]	GI50 [12]	GI50 [13]	GI50 [14]
COc1ccc2c(c1)CCC1C3(CCCC21C)OCCO3 (stereo unspecified)	18.5 µM (inactive)	16.9 µM (inactive)	22.8 µM (inactive)	17.5 µM (inactive)	28.8 µM (inactive)	27.9 µM (inactive)	16.1 µM (inactive)	27 µM (inactive)	19.3 µM (inactive)	12.9 µM (inactive)	4.7 µM (inactive)	15.6 µM (inactive)	15.9 µM (inactive)	20.8 µM (inactive)
CCOC(=O)C1=C(C)CC2C(=O)OC(=O)C2C1(C)C (stereo unspecified)	> 100 µM (inactive)	> 100 µM (inactive)	> 100 µM (inactive)	> 100 µM (inactive)	> 100 µM (inactive)	> 100 µM (inactive)	> 100 µM (inactive)	> 100 µM (inactive)	> 100 µM (inactive)	> 100 µM (inactive)	> 100 µM (inactive)	> 100 µM (inactive)	> 100 µM (inactive)	> 100 µM (inactive)
COc1ccc(C(C#N)NNC(=O)c2ccccc2O)cc1OC (stereo unspecified)	1.24 µM (inactive)	1.21 µM (inactive)		30.1 µM (inactive)	0.547 µM (active)	11.7 µM (inactive)	2.55 µM (inactive)	15.1 µM (inactive)	1.24 µM (inactive)	0.705 µM (active)	0.667 µM (active)	8.95 µM (inactive)	0.45 µM (active)	3.84 µM (inactive)
CC(=O)O[C@H]1CCC2[C@@H]3CCC4Nc5[nH]ncc5C[C@]4(C)C3CC[C@@]21C (stereo partly specified)	> 100 µM (inactive)	22.4 µM (inactive)	30.2 µM (inactive)	45.3 µM (inactive)	> 100 µM (inactive)	32.7 µM (inactive)	32.4 µM (inactive)	> 100 µM (inactive)	> 100 µM (inactive)	> 100 µM (inactive)	> 100 µM (inactive)	24.5 µM (inactive)	80.2 µM (inactive)	22.4 µM (inactive)
Cc1ccc(NC(=O)CCC/C(CC(=O)c2ccc(Br)cc2)=N/NC(=O)CC#N)cc1	> 100 µM (inactive)	> 100 µM (inactive)	> 100 µM (inactive)	> 100 µM (inactive)	> 100 µM (inactive)	> 100 µM (inactive)	> 100 µM (inactive)	> 100 µM (inactive)	> 100 µM (inactive)		> 100 µM (inactive)	> 100 µM (inactive)	> 100 µM (inactive)	> 100 µM (inactive)
COc1cc2c(cc1OC)C(C(CO)CO)N(CC(O)CCl)CC2 (stereo unspecified)	> 100 µM (inactive)	> 100 µM (inactive)	> 100 µM (inactive)	> 100 µM (inactive)	> 100 µM (inactive)	> 100 µM (inactive)	> 100 µM (inactive)	> 100 µM (inactive)	> 100 µM (inactive)	> 100 µM (inactive)	> 100 µM (inactive)	> 100 µM (inactive)	> 100 µM (inactive)	> 100 µM (inactive)
Cc1cccc2[s+]snc12	> 76.9 µM (inactive)	23.9 µM (inactive)	> 100 µM (inactive)	> 100 µM (inactive)	> 100 µM (inactive)	30.5 µM (inactive)	30.1 µM (inactive)	> 100 µM (inactive)	> 100 µM (inactive)	> 100 µM (inactive)	> 100 µM (inactive)	> 100 µM (inactive)	> 100 µM (inactive)	> 76.9 µM (inactive)
CC1CC2(CCC1OCc1ccccc1)OCCO2 (stereo unspecified)	> 100 µM (inactive)	> 100 µM (inactive)	> 100 µM (inactive)	> 100 µM (inactive)	> 100 µM (inactive)	> 100 µM (inactive)	> 100 µM (inactive)		> 100 µM (inactive)	> 100 µM (inactive)	> 100 µM (inactive)	> 100 µM (inactive)	> 100 µM (inactive)	> 100 µM (inactive)
COc1ccc(CN2C(=O)[C@@H]3Cc4c(OC)c(C)c(OC)c(OC)c4[C@H](/C2=C\c2cc(OC)c(OC)c(C)c2OC)N3C(=O)OC(C)C)cc1	> 100 µM (inactive)	35.4 µM (inactive)	22.4 µM (inactive)	92.5 µM (inactive)	> 100 µM (inactive)	41.2 µM (inactive)	99.1 µM (inactive)	> 100 µM (inactive)	96.2 µM (inactive)	> 100 µM (inactive)	91.8 µM (inactive)	29.4 µM (inactive)	> 100 µM (inactive)	8.28 µM (inactive)
CCOC(=O)N1CCN(P(=O)(Nc2ccc3[nH]c(NC(=O)OC)nc3c2)Oc2ccccc2)CC1 (stereo unspecified)	> 100 µM (inactive)	86.1 µM (inactive)	> 100 µM (inactive)	> 100 µM (inactive)	> 100 µM (inactive)	31.6 µM (inactive)	50.7 µM (inactive)	> 100 µM (inactive)			> 100 µM (inactive)		> 100 µM (inactive)	> 100 µM (inactive)
N#C/C(=C1\N=NC(N)=C(c2ccc(Cl)cc2)C1=O)c1ccc(Cl)cc1	> 100 µM (inactive)	> 100 µM (inactive)	> 100 µM (inactive)	> 100 µM (inactive)	> 100 µM (inactive)	> 100 µM (inactive)	> 100 µM (inactive)	> 100 µM (inactive)	> 100 µM (inactive)	> 100 µM (inactive)			> 100 µM (inactive)	> 100 µM (inactive)
C[n+]1cc(C(O)c2ccc3c(c2)OCO3)c2ccccc2c1 (stereo unspecified)	36.5 µM (inactive)	29.9 µM (inactive)	37.8 µM (inactive)	51.2 µM (inactive)	47.4 µM (inactive)	25.4 µM (inactive)	28.8 µM (inactive)	> 100 µM (inactive)	28.6 µM (inactive)	30.2 µM (inactive)	26.2 µM (inactive)	17.9 µM (inactive)	27 µM (inactive)	18.6 µM (inactive)
CCOC(=O)CC(C)C1(C=O)CCCCC1=O (stereo unspecified)	31 µM (inactive)	41.8 µM (inactive)	> 100 µM (inactive)	> 10 µM (inactive)	> 100 µM (inactive)	> 100 µM (inactive)	> 100 µM (inactive)	> 100 µM (inactive)	> 100 µM (inactive)	> 100 µM (inactive)	> 100 µM (inactive)	> 100 µM (inactive)	> 100 µM (inactive)	> 100 µM (inactive)
COC(=O)C1C(=O)NC2(C)CC1c1ccccc1O2 (stereo unspecified)	> 100 µM (inactive)	> 100 µM (inactive)	> 100 µM (inactive)	> 100 µM (inactive)	> 100 µM (inactive)	> 100 µM (inactive)	> 10 µM (inactive)	> 100 µM (inactive)	> 100 µM (inactive)	> 100 µM (inactive)	> 100 µM (inactive)	> 100 µM (inactive)	> 100 µM (inactive)	> 100 µM (inactive)
CC(NC(C)(C)C)C(=O)c1cccc(Cl)c1 (stereo unspecified) [BUPROPION HYDROCHLORIDE]	> 100 µM (inactive)	> 100 µM (inactive)	> 100 µM (inactive)	> 100 µM (inactive)	> 100 µM (inactive)	> 100 µM (inactive)	> 100 µM (inactive)		> 100 µM (inactive)	> 100 µM (inactive)	> 100 µM (inactive)	> 100 µM (inactive)	> 100 µM (inactive)	> 100 µM (inactive)
Cc1nc2c(n1CCO)C(=O)c1ccccc1C2=O	46.9 µM (inactive)	27.4 µM (inactive)	41.4 µM (inactive)	25.9 µM (inactive)	20.3 µM (inactive)	11.8 µM (inactive)	24.3 µM (inactive)		48.4 µM (inactive)	29.9 µM (inactive)	18.4 µM (inactive)	11.3 µM (inactive)	26.5 µM (inactive)	16.6 µM (inactive)
CC/C(C)=C1\CCC(CN(C)C)C1=O (stereo unspecified)	15.8 µM (inactive)	15.9 µM (inactive)	25.2 µM (inactive)	23.1 µM (inactive)	20 µM (inactive)	22 µM (inactive)	19.1 µM (inactive)	19.1 µM (inactive)	> 100 µM (inactive)	18.7 µM (inactive)	17.6 µM (inactive)	33.3 µM (inactive)		17.3 µM (inactive)
O=C(CCc1nnc2s/c(=C\c3ccc(Cl)c(Cl)c3)c(=O)n12)Nc1ccc(Cl)c(Cl)c1	> 100 µM (inactive)	22.5 µM (inactive)	> 100 µM (inactive)	> 100 µM (inactive)	44.2 µM (inactive)	> 100 µM (inactive)	29.9 µM (inactive)	> 100 µM (inactive)	46.1 µM (inactive)	51.8 µM (inactive)		43.9 µM (inactive)	36.9 µM (inactive)	> 100 µM (inactive)
CC(=O)OCC(OC(C)=O)C(OC(C)=O)C(OC(C)=O)C(=O)CNn1c(-c2ccccc2Cl)nc2ccccc2c1=O (stereo unspecified)	> 100 µM (inactive)	84.3 µM (inactive)		> 100 µM (inactive)		> 100 µM (inactive)	> 100 µM (inactive)	> 100 µM (inactive)	> 100 µM (inactive)	> 100 µM (inactive)	> 100 µM (inactive)	> 100 µM (inactive)	> 100 µM (inactive)	> 100 µM (inactive)
CNC(=O)NCCCCC(NC(C)=O)C(=O)NCc1ccccc1 (stereo unspecified)	> 100 µM (inactive)	> 100 µM (inactive)	> 100 µM (inactive)	> 100 µM (inactive)	> 100 µM (inactive)	> 100 µM (inactive)	> 100 µM (inactive)	> 100 µM (inactive)	> 100 µM (inactive)	> 100 µM (inactive)	> 100 µM (inactive)	> 100 µM (inactive)	> 100 µM (inactive)	> 100 µM (inactive)

From ChEMBL document CHEMBL1201862, “PubChem BioAssay data set” (2004)
